Measured values taken from ChEMBL document CHEMBL1122946, “Folate antagonists. 21. Synthesis and antimalarial properties of 2,4-diamino-6-(benzylamino)pyrido[3,2-d]pyrimidines” (1985).

Columns and labels:
Mus musculus [1] = experiment: Mean survival time against trophozoite induced Plasmodium berghei in mice minus control was evaluated at a dose 2.5 mg/kg.; type: functional
Mus musculus [2] = experiment: Mean survival time against trophozoite induced Plasmodium berghei in mice minus control was evaluated at a dose 160 mg/kg; 8 toxic death occurred out of 10 animals on days 2-5 after injection; type: functional, organism-based; set-up: dose 160 mg/kg
Mus musculus [3] = experiment: Mean survival time against trophozoite induced Plasmodium berghei in mice minus control was evaluated at a dose 40 mg/kg; 11 survived out of 15 animals at 60 days postinjection; type: functional, organism-based; set-up: dose 40 mg/kg
Mus musculus [4] = experiment: Mean survival time against trophozoite induced Plasmodium berghei in mice minus control was evaluated at a dose 320 mg/kg; 8 toxic death occurred out f 10 animals on days 2-5 after injection; type: functional, organism-based; set-up: dose 320 mg/kg
Mus musculus [5] = experiment: Mean survival time against trophozoite induced Plasmodium berghei in mice minus control was evaluated at a dose 80 mg/kg; 4 toxic death occurred out of 10 animals on days 2-5 after injection.; type: functional, organism-based; set-up: dose 80 mg/kg
Mus musculus [6] = experiment: Mean survival time against trophozoite induced Plasmodium berghei in mice minus control was evaluated at a dose 20 mg/kg;3 survived out of 15 animals at 60 days postinjection; type: functional, organism-based; set-up: dose 20 mg/kg
Mus musculus [7] = experiment: Mean survival time against trophozoite induced Plasmodium berghei in mice minus control was evaluated at a dose 640 mg/kg; 5 toxic death occurred out of 5 animals on days 2-5 after injection; type: functional, organism-based; set-up: dose 640 mg/kg
Mus musculus [8] = experiment: Mean survival time against trophozoite induced Plasmodium berghei in mice minus control was evaluated at a dose 1.25 mg/kg; type: functional
Mus musculus [9] = experiment: Mean survival time against trophozoite induced Plasmodium berghei in mice minus control was evaluated at a dose 10 mg/kg; type: functional
Mus musculus [10] = experiment: Mean survival time against trophozoite induced Plasmodium berghei in mice minus control was evaluated at a dose 5 mg/kg.; type: functional
Mus musculus [11] = experiment: Mean survival time against trophozoite induced Plasmodium berghei in mice minus control was evaluated at a dose 1.25 mg/kg.; type: functional
Mus musculus [12] = experiment: Mean survival time against trophozoite induced Plasmodium berghei in mice minus control was evaluated at a dose 640 mg/kg; 15 toxic death occurred out of 15 animals on days 2-5 after injection; type: functional, organism-based; set-up: dose 640 mg/kg
Mus musculus [13] = experiment: Mean survival time against trophozoite induced Plasmodium berghei in mice minus control was evaluated at a dose 80 mg/kg; 5 survived out of 5 animals at 60 days postinjection.; type: functional, organism-based; set-up: dose 80 mg/kg
Mus musculus [14] = experiment: Mean survival time against trophozoite induced Plasmodium berghei in mice minus control was evaluated at a dose 40 mg/kg; type: functional
Mus musculus [15] = experiment: Mean survival time against trophozoite induced Plasmodium berghei in mice minus control was evaluated at a dose 10 mg/kg.; type: functional
Mus musculus [16] = experiment: Mean survival time against trophozoite induced Plasmodium berghei in mice minus control was evaluated at a dose 320 mg/kg; 10 toxic death occurred out of 10 animals on days 2-5 after injection; type: functional, organism-based; set-up: dose 320 mg/kg
Mus musculus [17] = experiment: Mean survival time against trophozoite induced Plasmodium berghei in mice minus control was evaluated at a dose 160 mg/kg; 14 toxic death occurred out of 20 animals on days 2-5 after injection; type: functional, organism-based; set-up: dose 160 mg/kg
Mus musculus [18] = experiment: Mean survival time against trophozoite induced Plasmodium berghei in mice minus control was evaluated at a dose 20 mg/kg; type: functional

Structure (SMILES)	Delta MST (Mus musculus [1]) [days]	Delta MST (Mus musculus [2])	Delta MST (Mus musculus [3])	Delta MST (Mus musculus [4])	Delta MST (Mus musculus [5])	Delta MST (Mus musculus [6])	Delta MST (Mus musculus [7])	Delta MST (Mus musculus [8]) [days]	Delta MST (Mus musculus [9]) [days]	Delta MST (Mus musculus [10]) [days]	Delta MST (Mus musculus [11]) [days]	Delta MST (Mus musculus [12])	Delta MST (Mus musculus [13])	Delta MST (Mus musculus [14]) [days]	Delta MST (Mus musculus [15]) [days]	Delta MST (Mus musculus [16])	Delta MST (Mus musculus [17])	Delta MST (Mus musculus [18]) [days]
CC#N.CC(C)N(Cc1ccc(Cl)cc1)c1ccc2nc(N)nc(N)c2n1	6.5	Toxic Deaths 8/10	Survivals 11/15	Toxic Deaths 8/10	Toxic Deaths 4/10	Survivals 3/15	Toxic Deaths 5/5	3.5	11.5	8.5								
CCCN(Cc1ccc(Cl)cc1)c1ccc2nc(N)nc(N)c2n1	8.1									8.9	6.9	Toxic Deaths 15/15	Survivals 5/5	21.3	10.3	Toxic Deaths 10/10	Toxic Deaths 14/20	18
